# According to PMC10862543, “Naphthalene Diimide–Tetraazacycloalkane Conjugates Are G-Quadruplex-Based HIV-1 Inhibitors with a Dual Mode of Action” (ACS Infectious Diseases, 2024):
# Counter-ions that a name gives are not always drawn.
# What was measured:
# HIV-1 R5 strain (BaL) = assay: microbe, parasite or virus in culture; format: cell-based; conditions: TZM-bl; for IC50: Human immunodeficiency virus 1, BAL, R5 strain, MOI 0.3
# Procedure: (§1) We next tested the antiviral activity of the NDI–tetraazacycloalkane conjugates in TZM-bl cells. Cells were infected with HIV-1 NL4–3 or BaL, two strains with different cell tropism due to the different coreceptors that are bound by the virus to get access into the cell: HIV-1 NL4–3 exploits the CXCR4 coreceptor (X4 strain), while HIV-1 BaL exploits the CCR5 coreceptor (R5 strain). Compounds were administered at the time of infection or 2 h post infection, and the antiviral activity was evaluated 24 and 48 h post infection. Cytotoxicity was tested in parallel on uninfected cells to assess compound cytotoxicity.
# (§2) Cytotoxicity of tested compounds was performed in parallel to antiviral and reporter assays by MTT. […] The selectivity index (SI) is the relative effectiveness of the tested compound in inhibiting viral replication compared to inducing cell death (CC50 value/IC50 value). […] IC50 and CC50 values were calculated by using a nonlinear regression model.
# (§3) HIV-1 infectivity was measured using the TZM-bl reporter cell line (obtained through the NIH AIDS Reagent Program, Division of AIDS, NIAID, NIH: TZM-bl cells (catalog no. 8129) from Dr. John C. Kappes, and Dr. Xiaoyun Wu). TZM-bl is a HeLa cell line stably expressing large amounts of CD4 and CCR5, constitutively expressing CXCR4 and containing integrated copies of the luciferase and β-galactosidase genes under the control of the HIV-1 promoter. TZM-bl were grown in DMEM supplemented with 10% FBS. Cells (1 × 10^4 cells/well) were seeded in 96-well plates and grown overnight to permit adherence prior to treatment and viral infection. Cells were next infected with HIV-1 NL4–3 strain or BaL strain at a MOI of respectively 0.5 and 0.3 for 1 h at 37 °C, treated with serial dilutions of tested compounds, and incubated at 37 °C. MOI values had been optimized in previous in-house experiments in order to obtain a well detectable virus release but avoid a virus-induced cytopathic effect. Compounds were reconstituted in DMSO, and dilutions were made in cell medium to maintain the same percentage of DMSO in all dilutions. Untreated cells were treated with the same solvent. After 24 or 48 h, cells were washed with PBS 1× and HIV-1 production was assessed following the LTR-luciferase signal using the britelite plus Reporter Gene Assay System (PerkinElmer, Waltman, MA, USA) according to the manufacturer’s protocol.
# HIV-1 X4 strain (NL4-3) = assay: microbe, parasite or virus in culture; format: cell-based; conditions: for IC50: Human immunodeficiency virus 1, NL43, TZM-bl, X4 strain, MOI 0.5
# Procedure: as §1, §2, §3
# T-tropic HIV = conditions: cited from earlier work
# [1] = stability constant; cited from earlier work
# LTR-III [2] = assay: FRET melting assay, LTR-III G4; format: binding, HIV-1; conditions: LTR-III 0.25 μM, compound 0.5 μM, 100 mM KCl
# Procedure: (§4) FRET assay was performed with FAM (6-carboxyfluorescein) 5′-end- and Tamra (6-carboxytetramethylrhodamine) 3′-end-labeled oligonucleotides (Table S1). Fluorescence melting curves were determined with a LightCycler II (Roche) real-time PCR machine, using a total reaction volume of 20 μL, with 0.25 μM tagged oligonucleotide in a buffer containing 10 mM lithium cacodylate pH 7.4 with 100 mM KCl, in the presence or absence of 0.5 μM NDI–tetraazacycloalkane conjugate. After a first equilibration step at 30 °C during 2 min, a stepwise increase of 1 °C every minute for 65 cycles to reach 95 °C was performed and measurements were made after each cycle with excitation at 470 nm and detection at 530 nm. Final analysis of the data was carried out using Excel and Sigma Plot software. Oligonucleotides melting was monitored by observing emission of FAM, which was normalized between 0 and 1: Tm was defined as the temperature at which the normalized emission is 0.5. Tm values were mean of 2–3 experiments and ΔTm was calculated as the difference Tm in the presence and absence of the compound.
# LTR-IV [3] = assay: FRET melting assay, LTR-IV G4; format: binding, HIV-1; conditions: LTR-IV 0.25 μM, compound 0.5 μM, 100 mM KCl
# Procedure: as §4
# F21T = format: binding; conditions: F21T 0.25 μM, compound 0.5 μM, 100 mM KCl
# Procedure: as §4
# dsDNA = assay: FRET melting assay, dsDNA control; format: binding; conditions: dsDNA 0.25 μM, compound 0.5 μM, 100 mM KCl
# Procedure: as §4
# LTR-III [4] = assay: CD melting, LTR-III G4; format: binding, HIV-1; conditions: LTR-III 4 μM, compound 8 μM, 100 mM KCl
# Procedure: (§5) All oligonucleotides used in this study were from Sigma-Aldrich (Milan, Italy) (Table S2). For CD analysis, oligonucleotides were diluted to a final concentration of 4 μM in lithium cacodylate buffer (10 mM, pH 7.4) and KCl 100 mM. After the annealing step (95 °C for 5 min), DNA samples were gradually cooled to room temperature and compounds added from stock at final concentration of 8 μM. […] The reported spectrum of each sample represents the average of 2 scans and is baseline-corrected for signal contributions due to the buffer. Observed ellipticities were converted to mean residue ellipticity (θ) = deg × cm^2 × dmol^–1 (mol ellip). For the determination of Tm, spectra were recorded over a temperature range of 20–90 °C, with a temperature increase of 5 °C/min. Tm values were calculated according to the van’t Hoff equation, applied for a two-state transition from a folded to unfolded state, assuming that the heat capacity of the folded and unfolded states are equal.
# LTR-IV [5] = assay: CD melting, LTR-IV G4; format: binding, HIV-1; conditions: LTR-IV 4 μM, compound 8 μM, 100 mM KCl
# Procedure: as §5
# Tel22 = assay: CD melting, telomeric G4 control; format: binding; conditions: Tel22 4 μM, compound 8 μM, 100 mM KCl
# Procedure: as §5
# [6] = MTT cytotoxicity assay on uninfected cells; format: cell-based; conditions: human, uninfected TZM-bl
# Procedure: (§6) We used TZM-bl cells that are HeLa cells stably expressing large amounts of CD4, CXCR4, and CCR5, thus being highly susceptible to HIV-infection, with integrated luciferase and beta-galactosidase genes under the control of the HIV-1 promoter. We first tested NDI–tetraazacycloalkane conjugates’ cytotoxicity on TZM-bl cells by treating them with increasing amounts of compounds (0.097–25 μM) for 24 and 48 h.
# (§7) Cytotoxicity of tested compounds was performed in parallel to antiviral and reporter assays by MTT. […] The selectivity index (SI) is the relative effectiveness of the tested compound in inhibiting viral replication compared to inducing cell death (CC50 value/IC50 value). […]. IC50 and CC50 values were calculated by using a nonlinear regression model.
# TZM-bl cells = assay: MTT cytotoxicity assay on uninfected cells; format: cell-based; conditions: for CC50: uninfected TZM-bl
# Procedure: as §6, §7
# HIV-1 X4 strain (NL4–3) = assay: Time of addition (TOA) assay, X4 strain; format: cell-based
# Procedure: This assay indicates how long the addition of a compound can be postponed before it loses its antiviral activity: comparing the test compounds with reference drugs, whose mechanism is well characterized in the time frame of virus replication, it is possible to determine which viral steps are affected by the test compounds.[56]
# Virus production was monitored at 25 h post infection, i.e., at the end of a single round of HIV-1 replication, by exploiting the LTR-driven luciferase reporter system.
# 25 h post infection HIV-1 production was assessed following the LTR-luciferase signal using the britelite plus Reporter Gene Assay System. The activity of the test compounds was compared with that of untreated infected cells and reference drugs (DS stands for dextran sulfate and NEV stands for nevirapine).
# TZM-bl cells (1 × 10^4 cells/well) were seeded in 96-well plates and grown overnight to permit adherence prior to treatment and viral infection. Cells were next infected with HIV-1 NL4–3 or BaL strains (MOI 0.5 and 0.3, respectively) and incubated at 37 °C. […] Following these criteria, we used the highest possible concentrations with the lowest cytotoxicity. After 25 h, cells were washed with PBS 1× and HIV-1 production was assessed following the LTR-luciferase signal using the britelite plus Reporter Gene Assay System (PerkinElmer, Waltman, MA, USA) according to the manufacturer’s protocol.
# [7] = administration 0 hpi, evaluation 24 hpi
# [8] = administration 2 hpi, evaluation 24 hpi
# [9] = administration 2 hpi, evaluation 48 hpi
compound,measurement,setting,value
"c1cc(CN2CCCNCCNCCCNCC2)ccc1CN1CCCNCCNCCCNCC1 [AMD3100, 1,1′-[1,4-phenylenebis(methylene)]-bis-1,4,8,11-tetraazacyclotetradecane octahydrochloride dehydrate, reference compound]",antiviral activity (in words),"HIV-1 R5 strain (BaL); BaL strain, Figure S10",inactive
same,antiviral activity (in words),"HIV-1 X4 strain (NL4-3); pNL4.3 strain, TZM-bl, Figure S10",excellent activity
same,concentration preventing replication of T-tropic HIV (in words),T-tropic HIV,low nanomolar concentrations
C1CNCCNCCNCCN1 [Cyclen],log Ka toward Cu^2+,[1],23.29
C1CNCCNCCNCCNC1 [[13]aneN4],log Ka for Cu^2+,[1],24.41
CN(C)CCCNc1cc2c3c(c(NCCCCCC(=O)OCC4CNCCCNCCNCCN4)cc4c3c1C(=O)N(CCCN(C)C)C4=O)C(=O)N(CCCN(C)C)C2=O (stereo not shown) [compound 5],Tm K^+ 100 mM + compound (FRET),LTR-III [2],77.7 ± 0.1 °C
same,ΔTm (FRET),LTR-III [2],12.5 °C
same,Tm K^+ 100 mM + compound (FRET),LTR-IV [3],73.9 ± 0.6 °C
same,ΔTm (FRET),LTR-IV [3],15.2 °C
same,Tm K^+ 100 mM + compound (FRET),F21T,66.6 ± 0.1 °C
same,ΔTm (FRET),F21T,2.2 °C
same,Tm K^+ 100 mM + compound (FRET),dsDNA,65.0 ± 0.2 °C
same,ΔTm (FRET),dsDNA,0.8 °C
same,Tm K^+ 100 mM + compound (CD),LTR-III [4],78.6 ± 0.5 °C
same,ΔTm (CD),LTR-III [4],10.4 °C
same,Tm K^+ 100 mM + compound (CD),LTR-IV [5],71.6 ± 0.4 °C
same,ΔTm (CD),LTR-IV [5],21.2 °C
same,Tm K^+ 100 mM + compound (CD),Tel22,60.9 ± 0.3 °C
same,ΔTm (CD),Tel22,–5.9 °C
same,IC50,HIV-1 R5 strain (BaL); [7],> 25 µM
same,IC50,HIV-1 R5 strain (BaL); [8],> 25 µM
same,IC50,HIV-1 R5 strain (BaL); [9],16.6 ± 1.33 µM
same,IC50,HIV-1 X4 strain (NL4-3); [7],17.8 ± 0.94 µM
same,IC50,"HIV-1 X4 strain (NL4-3); administration 0 hpi, evaluation 48 hpi",1.86 ± 0.49 µM
same,IC50,HIV-1 X4 strain (NL4-3); [8],12.1 ± 1.02 µM
same,IC50,HIV-1 X4 strain (NL4-3); [9],1.82 ± 0.65 µM
same,CC50 at 24 h,"[6]; parallel to R5, administration 2 hpi, evaluation 24 hpi",> 25 µM
same,CC50 at 48 h,"[6]; parallel to X4, administration 0 hpi, evaluation 48 hpi",> 25 µM
same,CC50,"TZM-bl cells; parallel to R5, administration 0 hpi, evaluation 24 hpi",> 25 µM
same,CC50,"TZM-bl cells; parallel to R5, administration 0 hpi, evaluation 48 hpi",> 25 µM
same,CC50,"TZM-bl cells; parallel to R5, administration 2 hpi, evaluation 48 hpi",> 25 µM
same,CC50,"TZM-bl cells; parallel to X4, administration 0 hpi, evaluation 24 hpi",> 25 µM
same,CC50,"TZM-bl cells; parallel to X4, administration 2 hpi, evaluation 24 hpi",> 25 µM
same,CC50,"TZM-bl cells; parallel to X4, administration 2 hpi, evaluation 48 hpi",> 25 µM
Cc1ccnc2c1NC(=O)c1cccnc1N2C1CC1 [nevirapine],time post infection up to which the control drug is active,HIV-1 X4 strain (NL4–3),3 to 4 h
CN(C)CCCNc1cc2c3c(c(NCCCCCC(=O)O)cc4c3c1C(=O)N(CCCN(C)C)C4=O)C(=O)N(CCCN(C)C)C2=O [parental NDI],cytotoxicity (in words),"TZM-bl cells; TZM-bl, 24 h, Figure S11",highly cytotoxic
dextran sulfate,time post infection up to which the control drug is active,HIV-1 X4 strain (NL4–3),active at the time of infection only
